In US10907168B2, “Jasmonic acid pathway activator” (MEDICAGO INC., priority 2015, dated 2021):
Entries after “also recorded” stand apart in the source; their conditions may differ.

Tests used:
[1] = system: N. benthamiana leaves; assay: Leaf protein profile, Coomassie blue-stained SDS-PAGE and MS/MS identification; assay type: in vivo, Nicotiana benthamiana; settings: uninfiltrated leaves; ~30-kDa, ~25-kDa and ~6-kDa mass ranges; seven days post-treatment
Procedure: Forty-two day-old N. benthamiana plants grown in greenhouse were used for the experiments. Each plant was sprayed evenly with 50 ml of 0.5 mM, 1 mM or 2 mM MeJA in water containing 0.1% (v/v) Triton X-100 (Sigma-Aldrich, Mississauga ON, Canada), or with 50 ml of 1 mM arachidonic acid (Girard et al., 2007) in the same solvent, and transferred for seven days in a Conviron growth chamber (Conviron, Winnipeg MB, Canada). Plants sprayed with 50 ml of 0.1% (v/v) Triton X-100 in water were used in parallel as negative controls to avoid confounding effects due to experimental conditions. […]
Whole leaf proteins were extracted from three 1-cm^2 leaf discs in 400 μl of ice-cold 50 mM Tris-HCl, pH 7.5, containing 150 mM NaCl, by disrupting the leaf samples with tungsten carbide beads (Qiagen, Mississauga ON, Canada) in a Mini-Beadbeater apparatus (BioSpec, Bartlesville Okla., USA). […] RuBisCO small subunit was detected using polyclonal IgG raised in rabbit against a synthetic small subunit peptide (Agrisera, Vännäs, Sweden) and alkaline phosphatase-conjugated goat anti-rabbit IgG as secondary antibodies (Sigma-Aldrich). RuBisCO large subunit was detected using polyclonal IgG raised in hen against a synthetic large subunit peptide (Agrisera) and alkaline phosphatase-conjugated goat anti-chicken IgG as secondary antibodies (Sigma-Aldrich). […]

[2] = system: C5-1 light and heavy chain mRNA; assay: Real-time RT PCR of C5-1 light and heavy chain transcripts; assay type: in vivo, Nicotiana benthamiana; settings: 1 mM spray, 24 h before infiltration
[3] = system: A. tumefaciens VirB1; assay: Real-time RT PCR of VirB1 transcripts in agroinfiltrated leaves; assay type: in vivo, Agrobacterium tumefaciens; settings: 1 mM, seven days post-treatment, Student's t-test P<0.05
Procedure: mRNA transcripts for C5-1 and A. tumefaciens virulence proteins VirB1 and VirE1 were assayed by real-time RT PCR using an ABI PRISM 7500 Fast real-time PCR apparatus, system version 2.0.1 (Applied Biosystems, Carlsbad Calif., U.S.A.). Total RNA was extracted from two 1-cm^2 leaf discs collected on the third main stem leaf (Robert et al., 2013) using the Qiagen RNeasy plant mini kit (Qiagen), following the supplier's instructions. RNA samples were treated with DNase I (Roche Diagnostics) to remove contaminant DNA and assessed for quality and quantity using a Nanodrop® ND-1000 spectrophotometer (NanoDrop Technologies, Wilmington Del., USA). First-strand cDNA was synthesized from 500 ng of total RNA using 4 units of Omniscript reverse transcriptase (Qiagen) and 1 μM of oligo-dT (15) nucleotides (Roche). PCR reactions contained 10 μl of Fast SYBR Green PCR Master Mix (Applied Biosystems), 2 μl of cDNA template, and 2.5 μl each of appropriate forward and reverse primers at 625 nM final concentration (Table 1). A no-template mixture control was included in each 96-well plate. Amplification rounds consisted of a 20-s denaturation step at 95° C., followed by 40 two-step cycles of 3 s at 95° C. and 30 s at 60° C. […]

[4] = system: 33-kDa pathogen-inducible PR-2 protein; assay: 33-kDa PR-2 protein accumulation, immunodetection and densitometry; assay type: in vivo, Nicotiana benthamiana; settings: non-infiltrated leaves; sprayed at 0.5 or 1 mM; ANOVA P>0.05
Text: FIGS. 2a-2c show the effect of MeJA treatment on PR-2 protein accumulation, agrobacteria numbers and transcript numbers of the two A. tumefaciens virulence proteins VirB1 and VirE1 in N. benthamiana leaves. […] Immunoblot signals were quantified using the Phoretix 2-D Expression software v. 2005 (NonLinear USA) after scanning nitrocellulose membranes with a Microtek ScanMaker II digitalizer (Microtek Laboratory). Data are the mean of three leaf replicates±SE. An arbitrary value of 1.0 was assigned to PR-2 level in control healthy leaves. […] Data are expressed as log numbers of colony-forming units (CFU) on agar plates and each point is the mean of five independent (leaf replicate) values±SE. […]
Whole leaf proteins were extracted from three 1-cm^2 leaf discs in 400 μl of ice-cold 50 mM Tris-HCl, pH 7.5, containing 150 mM NaCl, by disrupting the leaf samples with tungsten carbide beads (Qiagen, Mississauga ON, Canada) in a Mini-Beadbeater apparatus (BioSpec, Bartlesville Okla., USA). […] RuBisCO small subunit was detected using polyclonal IgG raised in rabbit against a synthetic small subunit peptide (Agrisera, Vännäs, Sweden) and alkaline phosphatase-conjugated goat anti-rabbit IgG as secondary antibodies (Sigma-Aldrich). […] C5-1 light and heavy chains were detected with alkaline phosphatase-conjugated goat anti-mouse IgG antibodies (Sigma-Aldrich).

CC/C=C\C[C@H]1C(=O)CC[C@@H]1CC(=O)OC [MeJA, methyl jasmonate]
up-regulation of proteins on Coomassie blue-stained gels [1]: up-regulation of several proteins
mRNA transcript numbers for C5-1 light and heavy chains compared with control leaf extracts [2]: about twofold
VirB1 mRNA transcripts versus control leaves [3]: negatively altered; also recorded: significantly lower value
expression of 33-kDa PR-2 protein [4]: no significant effect
